Results published in US10723726B2, “Solid forms of (Z)-4-(5-((3-benzyl-4-oxo-2-thioxothiazolidin-5-ylidene)methyl)furan-2-yl)benzoic acid” (GB006, INC., priority 2015, dated 2020).
Structures can show the parent of a compound that is named as a salt.

Tests used:
in vivo [1] = details: male
Description: Test system: Healthy Beagle dog weighing 10-12 kg (age 10 months), males were used for the study. Crossover design was adopted for the experiments wherein 03 dogs were used in the study for oral and intravenous administration. The animals were housed stainless steel cage provided with a hopper to hold pellet feed and a separate water hopper. Temperature and humidity was maintained at 23±5° C. and 30-70%, respectively. The illumination was controlled to give a sequence of 12 h light and 12 h dark cycle. All the animals were adapted to the experimental conditions for at least 5 days prior to dosing. All animals were provided with Pedigree™ standard pellet feed, except for 10 to 12 h before treatment and 4 h after the drug administration. Water was provided ad libidum.
Formulation and drug administration: 251.02 mg of test item was transferred in to a clean mortar. Test item was ground uniformly using pestle. 1.235 ml of Tween 80 was added and the material was mixed. A small quantity of 0.5% (w/v) methylcellulose in water was added and the mixture was triturated. 0.5% methyl cellulose was added to make a final volume of 190 ml. Finally the above formulation was transferred to a pre-labeled beaker and sonicated for five minutes. Suspension was dosed under stirring conditions by placing on a magnetic stirrer.
The dose formulation of LA-1.choline was administered by oral gavage using a feeding gavage tube. The required volume of dose formulation (5 ml/kg body weight) was draw up into a graduated syringe. The dog was properly restrained with the help of another person so as to restrict movement. The feeding tube was inserted slowly in the mouth through the space between cheek and the teeth towards esophagus to the stomach. Proper placement of tube was confirmed by dipping the outside end of tube in a container with water and looking for air bubbles. Absence of air bubbles confirmed the location of tube in the stomach. The required dose volume of LA-1.choline suspension was slowly administered through the feeding tube. Air was pushed through at the end to ensure empting of the tube. The tube was slowly taken out and discarded.
Intravenous drug formulation: Accurately weighed 27.49 mg of test item was transferred in to the clean tube. A volume of 0.417 mL DMSO was added and mixed until the test dissolves completely. A volume 0.417 mL of Solutol:alcohol (1:1, v/v) was added and mixed, to this, 7.496 mL of normal saline was added and vortexed. Finally, the above formulation was used for dosing.
The required volume of dose formulation (0.2 ml/kg body weight) of LA-1.choline was drawn up into a graduated syringe. Air bubbles were removed from the syringe before dosing. The dog was restrained in the standing position. The upper portion of injection site of cephalic vein was compressed and the needle of the butterfly vein catheter sized 22G was slowly inserted in the vein. Once blood reached the end of the catheter tube, it was connected to the syringe. The dose formulation was immediately injected slowly. At the end of administration, approximately 0.5 mL of normal saline was injected via catheter to ensure the required dose volume was administrated. Last, the needle was removed.
Sample collection: Post-dosing ˜1.5 ml of blood sample from each dog for the following time points 0.25, 0.5, 1, 1.5, 2, 3, 5, 8, 10 and 24 h was collected from the jugular vein into K2EDTA containing pre-labeled vacutainer centrifuge tubes. Plasma was obtained by centrifuging blood samples at 2500 g for 10 min. under refrigeration (2-4° C.) within 0.5 h of sampling. The obtained plasma samples were transferred into pre-labeled microcentrifuge tubes (approximately ˜300 μl) and stored at or below −70±10° C. The sample labels include details such as study number, test item code and dose group and/or day of sampling, animal number, time point.
Extraction procedure: The plasma separated from the whole blood was used for bio-analysis.

in vivo [2] = details: C57BL/6, mouse
Description: A mouse melanoma tumor cell line, B16-F10, was used for developing a subcutaneous tumor model. 0.1×10^6 cells were injected subcutaneously in the right flank region of the animal. When the tumors reached ˜45 mm^3 the animals were randomized into various groups, each group with 10 animals, so that the average tumor volume of all the groups was similar. Animals were treated from the day of randomization (Day 1). Tumor dimensions (length and diameter) were measured for all animals three times per week, including the termination day of the study. In addition, throughout the study period, mice were monitored daily for clinical conditions. […] Portions of the blood samples were used for blood analysis and clinical chemistry. Lung, heart, liver, spleen, and kidneys were also collected and histopathological analysis was performed.

leukocytes = details: mice; cited from earlier work
[3] = mice; cited from earlier work
[4] = Beagle, dog, iv, 0.5 mg/kg, Plasma concentration
[5] = Beagle, dog, po, 5 mg/kg, Mean conc.
[6] = Beagle, dog, po, 5 mg/kg, Plasma concentration
[7] = beagle, dog, iv, 0.5 mg/kg, Mean conc.
[8] = beagle, dog, iv, 0.5 mg/kg, Plasma concentration
[9] = beagle, dog, po, 5 mg/kg, Plasma concentration

Compound: O=C(O)c1ccc(-c2ccc(/C=C3\SC(=S)N(Cc4ccccc4)C3=O)o2)cc1 [LA1 choline salt]
- concentration at 0.25 h (in vivo [1]; [4]): 723 ng/mL
- concentration at 0.5 h (in vivo [1]; [4]): 501 ng/mL
- concentration at 1 h (in vivo [1]; [4]): 397 ng/mL
- concentration at 2 h (in vivo [1]; [4]): 203 ng/mL
- concentration at 3 h (in vivo [1]; [4]): 265 ng/mL
- concentration at 5 h (in vivo [1]; [4]): 67.7 ng/mL
- concentration at 8 h (in vivo [1]; [4]): 44.4 ng/mL
- concentration at 10 h (in vivo [1]; [4]): 19.8 ng/mL
- Plasma concentration (in vivo [1]; Beagle, dog, po, 5 mg/kg, 0.5 h): 2776 ng/mL
- Plasma concentration (in vivo [1]; Beagle, dog, po, 5 mg/kg, 1 h): 2706 ng/mL
- Plasma concentration (in vivo [1]; Beagle, dog, po, 5 mg/kg, 2 h): 2055 ng/mL
- Plasma concentration (in vivo [1]; Beagle, dog, po, 5 mg/kg, 3 h): 2510 ng/mL
- Plasma concentration (in vivo [1]; Beagle, dog, po, 5 mg/kg, 5 h): 429 ng/mL
- concentration at 0.25 h (in vivo [1]; [5]): 1100 ng/mL
- concentration at 0.5 h (in vivo [1]; [5]): 1880 ng/mL
- concentration at 1 h (in vivo [1]; [5]): 1890 ng/mL
- concentration at 2 h (in vivo [1]; [5]): 1520 ng/mL
- concentration at 3 h (in vivo [1]; [5]): 1960 ng/mL
- concentration at 5 h (in vivo [1]; [5]): 414 ng/mL
- concentration at 8 h (in vivo [1]; [5]): 150 ng/mL
- concentration at 10 h (in vivo [1]; [5]): 128 ng/mL
- concentration at 24 h (in vivo [1]; [5]): 16.9 ng/mL
- concentration at 0.5 h (in vivo [1]; [6]): 1870 ng/mL
- concentration at 1 h (in vivo [1]; [6]): 1660 ng/mL
- concentration at 2 h (in vivo [1]; [6]): 1480 ng/mL
- concentration at 3 h (in vivo [1]; [6]): 1810 ng/mL
- concentration at 5 h (in vivo [1]; [6]): 442 ng/mL
- Dog Cl (in vivo [1]; beagle): 3.9 mL/min/kg
- bioavailability (in vivo [1]; beagle, dog, Absolute oral bioavailability): 50.6%
- clearance (in vivo [1]; beagle, dog, Dog Cl (ml/min/kg)): 3.92 mL/min/kg
- bioavailability (in vivo [1]; beagle, dog, Dog F % (absolute oral bioavailability)): 43.4%
- AUC0-t (in vivo [1]; beagle, dog, iv, 0.5 mg/kg): 1330 ng·h/mL
- AUC(0-inf) (in vivo [1]; beagle, dog, iv, 0.5 mg/kg): 1350 ng·h/mL
- Cmax (in vivo [1]; beagle, dog, iv, 0.5 mg/kg): 2040 ng/mL
- Vd (in vivo [1]; beagle, dog, iv, 0.5 mg/kg): 0.00072 L
- Plasma concentration (in vivo [1]; beagle, dog, iv, 0.5 mg/kg, 0.25 h): 843 ng/mL
- Plasma concentration (in vivo [1]; beagle, dog, iv, 0.5 mg/kg, 0.5 h): 548 ng/mL
- Plasma concentration (in vivo [1]; beagle, dog, iv, 0.5 mg/kg, 1 h): 405 ng/mL
- clearance (in vivo [1]; beagle, dog, iv, 0.5 mg/kg, Cl): 0.0065 mL/min
- half-life (in vivo [1]; beagle, dog, iv, 0.5 mg/kg, Half life): 2.15 h
- concentration at 0.25 h (in vivo [1]; [7]): 851 ng/mL
- concentration at 0.5 h (in vivo [1]; [7]): 641 ng/mL
- concentration at 1 h (in vivo [1]; [7]): 508 ng/mL
- concentration at 2 h (in vivo [1]; [7]): 297 ng/mL
- concentration at 3 h (in vivo [1]; [7]): 421 ng/mL
- concentration at 5 h (in vivo [1]; [7]): 109 ng/mL
- concentration at 8 h (in vivo [1]; [7]): 44.1 ng/mL
- concentration at 10 h (in vivo [1]; [7]): 27.6 ng/mL
- concentration at 0.25 h (in vivo [1]; [8]): 987 ng/mL
- concentration at 0.5 h (in vivo [1]; [8]): 874 ng/mL
- concentration at 1 h (in vivo [1]; [8]): 721 ng/mL
- concentration at 24 h (in vivo [1]; [8]): 15.8 ng/mL
- AUC0-t (in vivo [1]; beagle, dog, po, 3 mg/kg): 2570 ng·h/mL
- AUC(0-inf) (in vivo [1]; beagle, dog, po, 3 mg/kg): 2690 ng·h/mL
- Cmax (in vivo [1]; beagle, dog, po, 3 mg/kg): 685 ng/mL
- Tmax (in vivo [1]; beagle, dog, po, 3 mg/kg): 4 h
- half-life (in vivo [1]; beagle, dog, po, 3 mg/kg, Half life): 2.11 h
- Vdss (in vivo [1]; beagle, dog, po, 5 mg/kg): 0.83 L/kg
- peak concentration (in vivo [1]; beagle, dog, po, 5 mg/kg): 2068 ng/mL
- t1/2 (hr), oral half-life (in vivo [1]; beagle, dog, po, 5 mg/kg): 3.41 h
- time of peak concentration post dose (in vivo [1]; beagle, dog, po, 5 mg/kg): 1.5 h
- concentration at 0.5 h (in vivo [1]; [9]): 999 ng/mL
- concentration at 1 h (in vivo [1]; [9]): 1310 ng/mL
- concentration at 2 h (in vivo [1]; [9]): 1020 ng/mL
- concentration at 3 h (in vivo [1]; [9]): 1560 ng/mL
- concentration at 5 h (in vivo [1]; [9]): 370 ng/mL
- concentration at 8 h (in vivo [1]; [9]): 107 ng/mL
- concentration at 10 h (in vivo [1]; [9]): 158 ng/mL
- half-life (in vivo [1]; beagle, dog, po, 5 mg/kg, t1/2 (hr), oral half-life): ~3.4 h

Compound: O=C(O)c1ccc(-c2ccc(/C=C3\SC(=S)N(Cc4ccccc4)C3=O)o2)cc1 [LA1, (Z)-4-(5-((3-benzyl-4-oxo-2-thioxothiazolidin-5-ylidene)methyl)furan-2-yl)benzoic acid]
- concentration at 0.5 h (in vivo [2]; exposure in blood at end of study): 383 ± 450 ng/mL
- concentration at 0.5 h (in vivo [2]; exposure in tumor at end of study): 24.7 ± 17.6 ng/mL
- recruitment of leukocytes during acute peritonitis (leukocytes): reduce recruitment of leukocytes
- renal ischemia/reperfusion injury [3]: reduce renal ischemia/reperfusion injury
